Assay results reported in patent US9012431B2, “Boron-containing small molecules as anti-inflammatory agents” (Anacor Pharmaceuticals, Inc., priority 2008, dated 2015).
Where a name gives a salt, the structure may show the parent alone.

Assays:
IL-5 = assay: Cytokine assay, IL-5 release from PBMC; type: cell-based; conditions: human PBMC, 20 ug/mL PHA; for IC50: supernatant at 48 hours; for inhibition at 10 µM: 48 hours
Protocol: (§1) The ability of the compounds described herein to inhibit pro-inflammatory cytokines or phsophodiesterases were tested.
(§2) Frozen human peripheral blood mononucleocytes (PBMC) were thawed and centrifuged. Cryopreservation media was aspirated off of the cell pellet, and the cells were resuspended in fresh culture media (CM) comprising RPMI 1640 and 10% FBS in 96 well plates. Test article was dissolved in DMSO to form a 10 mM sample (DMSO, 100%). The 10 mM samples were diluted to 100 μM in CM (DMSO, 1%), then further diluted to 10, 1, 0.1, 0.01 μM in 200 μL of CM (n=3). […] IL-23 was assayed using a commercial ELISA kit (R&D Systems).

IFN-γ = assay: Cytokine assay, IFN-γ release from PBMC; type: cell-based; conditions: human PBMC, 20 ug/mL PHA; for IC50: supernatant at 24 hours; for inhibition at 10 µM: 24 hours
Protocol: as §1, §2

IL-10 = assay: Cytokine assay, IL-10 release from PBMC; type: cell-based; conditions: human PBMC, 20 ug/mL PHA; for IC50: supernatant at 48 hours; for inhibition at 10 µM: 48 hours
Protocol: as §1, §2

TNF-α = assay: Cytokine assay, TNF-α release from PBMC; type: cell-based; conditions: 1 μg/mL LPS; for IC50: supernatant at 24 hours; for inhibition at 10 µM: 24 hours
Protocol: as §1, §2

IL-2 = assay: Cytokine assay, IL-2 release from PBMC; type: cell-based; conditions: human PBMC, 20 ug/mL PHA; for IC50: supernatant at 24 hours; for inhibition at 10 µM: 24 hours
Protocol: as §1, §2

[1] = test system: T1, PDE4 partially purified from human U-937 myeloid leukemia cells; assay: PDE4 Assay (enzyme from U-937 cells, [3H]cAMP); type: biochemical; conditions: PDE4 from U-937 cells, Tris buffer pH 7.5, 20 minutes at 25° C.
T1 construct: PDE4 partially purified from human U-937 myeloid leukemia cells was used
Protocol: Test article and/or vehicle was incubated with 0.2 mg enzyme and 1 mM cAMP containing 0.01 mM [3H]cAMP in Tris buffer pH 7.5 for 20 minutes at 25° C. The reaction was terminated by boiling for 2 minutes and the resulting AMP is converted to adenosine by addition of 10 mg/ml snake venom nucleotidase and further incubation at 37° C. for 10 minutes. Unhydrolyzed cAMP is bound to AG1-X2 resin, and remaining [3H]Adenosine in the aqueous phase is quantitated by scintillation counting.

CN1CCN(C(=O)c2ccc(Oc3ccc4c(c3)COB4O)cc2)CC1 [D79, [4-(1-Hydroxy-1,3-dihydro-benzo[c][1,2]oxaborol-5-yloxy)-phenyl]-(4-methyl-piperazin-1-yl)-methanone]
IC50 (IL-5): > 10 µM | IC50 (IFN-γ): > 10 µM | IC50 (IL-10): > 10 µM | IC50 (TNF-α; Homo sapiens, PBMC, 24 h): > 10 µM | IC50 (IL-2): > 10 µM

CC(C)(C)Nc1nc(Oc2ccc3c(c2)COB3O)ccc1C#N [D129, 2-tert-butylamino-6-(1-hydroxy-1,3-dihydro-benzo[c][1,2]oxaborol-5-yloxy)-nicotinonitrile]
IC50 (TNF-α; Homo sapiens, PBMC, 24 h): < 1 µM | IC50 [1]: < 1 µM

CCOC(=O)c1ccc(Oc2ccc3c(c2)COB3O)c(OC)c1 [D20, 5-(4-Ethoxycarbonyl-2-methoxyphenoxy)-1,3-dihydro-1-hydroxy-2,1-benzoxaborole]
IC50 (IFN-γ): < 1 µM | IC50 (TNF-α; Homo sapiens, PBMC, 24 h): < 1 µM | IC50 (IL-2): < 1 µM | IC50 [1]: < 1 µM

CCOC(=O)c1ccc(Oc2ccc3c(c2)COB3O)c(O)c1 [D19, 5-(4-Ethoxycarbonyl-2-hydroxyphenoxy)-1,3-dihydro-1-hydroxy-2,1-benzoxaborole]
IC50 (IFN-γ): 1 to 4 µM | IC50 (TNF-α; Homo sapiens, PBMC, 24 h): 1 to 4 µM | IC50 (IL-2): 1 to 4 µM | IC50 [1]: < 1 µM

CC1CCN(C(=O)COc2cc(Oc3ccc4c(c3)COB4O)ccc2C#N)CC1 [D42, 4-(1-Hydroxy-1,3-dihydro-benzo[c][1,2]oxaborol-5-yloxy)-2-[2-(4-methyl-piperidin-1-yl)-2-oxo-ethoxy]-benzonitrile]
inhibition at 10 µM (IL-5): 60 to 90% | inhibition at 10 µM (IFN-γ): 90 to 100% | inhibition at 10 µM (IL-10): 60 to 90% | inhibition at 10 µM (TNF-α; human PBMC): 60 to 90% | inhibition at 10 µM (IL-2): 90 to 100%

CN(C)CCNC(=O)c1ccc(Oc2ccc3c(c2)COB3O)cc1 [D81, N-(2-Dimethylamino-ethyl)-4-(1-hydroxy-1,3-dihydro-benzo[c][1,2]oxaborol-5-yloxy)-benzamide]
IC50 (IL-5): 4 to 10 µM | IC50 (IFN-γ): > 10 µM | IC50 (IL-10): > 10 µM | IC50 (TNF-α; Homo sapiens, PBMC, 24 h): > 10 µM | IC50 (IL-2): > 10 µM

C[NH+]1CCN(C(=O)COc2cc(Oc3ccc4c(c3)COB4O)ccc2C#N)CC1 [D43, 4-(1-Hydroxy-1,3-dihydro-benzo[c][1,2]oxaborol-5-yloxy)-2-[2-(4-methyl-piperazin-1-yl)-2-oxo-ethoxy]-benzonitrile hexafluorophosphate]
inhibition at 10 µM (IL-5): 60 to 90% | inhibition at 10 µM (IFN-γ): 60 to 90% | inhibition at 10 µM (IL-10): 60 to 90% | inhibition at 10 µM (TNF-α; human PBMC): < 30% | inhibition at 10 µM (IL-2): 90 to 100%

N#Cc1ccc(Oc2ccc3c(c2)COB3O)nc1O [D108, 2-hydroxy-6-(1-hydroxy-1,3-dihydrobenzo[c][1,2]oxaborol-5-yloxy)nicotinonitrile]
IC50 [1]: 4 to 10 µM

N#Cc1ccc(Oc2ccc3c(c2)COB3O)c(CN)c1 [D138, 5-(2-Aminomethyl-4-cyanophenoxy)-1,3-dihydro-1-hydroxy-2,1-benzoxaborole hydrochloride]
inhibition at 10 µM (IL-5): 60 to 90% | inhibition at 10 µM (IFN-γ): 30 to 60% | inhibition at 10 µM (IL-10): 30 to 60% | IC50 (TNF-α; human PBMC, hydrochloride): 1 to 4 µM | inhibition at 10 µM (IL-2): 60 to 90%

CC(=O)N1CCN(C(=O)c2ccc(Oc3ccc4c(c3)COB4O)cc2)CC1 [D80, 1-{4-[4-(1-Hydroxy-1,3-dihydro-benzo[c][1,2]oxaborol-5-yloxy)-benzoyl]-piperazin-1-yl}-ethanone]
IC50 (IL-5): > 10 µM | IC50 (IFN-γ): > 10 µM | IC50 (IL-10): > 10 µM | IC50 (TNF-α; Homo sapiens, PBMC, 24 h): > 10 µM | IC50 (IL-2): > 10 µM

CCOC(=O)c1ccc(Oc2ccc3c(c2)COB3O)c(OC2CCCC2)c1 [D21, 5-[4-Ethoxycarbonyl-2-(cyclopentyloxy)phenoxy]-1,3-dihydro-1-hydroxy-2,1-benzoxaborole]
IC50 (IFN-γ): < 1 µM | IC50 (TNF-α; Homo sapiens, PBMC, 24 h): 1 to 4 µM | IC50 (IL-2): < 1 µM | IC50 [1]: < 1 µM

O=C(O)c1ccc(Oc2ccc3c(c2)COB3O)c(O)c1 [D18, 5-(4-Carboxy-2-hydroxyphenoxy)-1,3-dihydro-1-hydroxy-2,1-benzoxaborole]
IC50 (IFN-γ): > 10 µM | IC50 (TNF-α; Homo sapiens, PBMC, 24 h): > 10 µM | IC50 (IL-2): > 10 µM

N#Cc1ccc(Oc2ccc3c(c2)COB3O)nc1NCCO [D132, 6-(1-hydroxy-1,3-dihydro-benzo[c][1,2]oxaborol-5-yloxy)-2-(2-hydroxy-ethylamino)-nicotinonitrile]
IC50 (IL-5): < 1 µM | IC50 (IFN-γ): < 1 µM | IC50 (IL-10): < 1 µM | IC50 (TNF-α; Homo sapiens, PBMC, 24 h): < 1 µM | IC50 (IL-2): < 1 µM

N#Cc1ccc(Oc2ccc3c(c2)COB3O)c(OCC(=O)O)c1 [D17, 5-[2-(Carboxymethoxy)-4-cyanophenoxy]-1,3-dihydro-1-hydroxy-2,1-benzoxaborole]
IC50 (IFN-γ): > 10 µM | IC50 (TNF-α; Homo sapiens, PBMC, 24 h): 4 to 10 µM | IC50 (IL-2): > 10 µM | IC50 [1]: < 1 µM

O=C(NCCO)c1ccc(Oc2ccc3c(c2)COB3O)cc1 [D77, 4-(1-Hydroxy-1,3-dihydro-benzo[c][1,2]oxaborol-5-yloxy)-N-(2-hydroxy-ethyl)-benzamide]
IC50 (IL-5): > 10 µM | IC50 (IFN-γ): 1 to 4 µM | IC50 (IL-10): 4 to 10 µM | IC50 (TNF-α; Homo sapiens, PBMC, 24 h): > 10 µM | IC50 (IL-2): 1 to 4 µM

N#Cc1ccc(Oc2ccc3c(c2)COB3O)cc1OCC(=O)O [D39, [2-Cyano-5-(1-hydroxy-1,3-dihydro-benzo[c][1,2]oxaborol-5-yloxy)-phenoxy]-acetic acid]
inhibition at 10 µM (IL-5): < 30% | inhibition at 10 µM (IFN-γ): 30 to 60% | inhibition at 10 µM (TNF-α; human PBMC): 30 to 60% | inhibition at 10 µM (IL-2): 30 to 60%

O=C(O)c1cnc(Oc2ccc3c(c2)COB3O)c(Cl)c1 [D49, 5-Chloro-6-(1-hydroxy-1,3-dihydrobenzo[c][1,2]oxaborol-5-yloxy)nicotinic acid]
IC50 (IFN-γ): 4 to 10 µM | IC50 (TNF-α; Homo sapiens, PBMC, 24 h): 4 to 10 µM | IC50 (IL-2): 4 to 10 µM | IC50 [1]: 1 to 4 µM

CC(C)COc1nc(Oc2ccc3c(c2)COB3O)ccc1C#N [D136, 6-(1-Hydroxy-1,3-dihydro-benzo[c][1,2]oxaborol-5-yloxy)-2-isobutoxy-nicotinonitrile]
IC50 (TNF-α; Homo sapiens, PBMC, 24 h): < 1 µM | IC50 [1]: < 1 µM

OCc1ccc(Oc2ccc3c(c2)COB3O)nc1 [D64, 5-(5-(Hydroxymethyl)pyridin-2-yloxy)benzo[c][1,2]oxaborol-1 (3H)-ol]
IC50 (IL-5): > 10 µM | IC50 (IFN-γ): 4 to 10 µM | IC50 (IL-10): 4 to 10 µM | IC50 (TNF-α; Homo sapiens, PBMC, 24 h): 1 to 4 µM | IC50 (IL-2): 4 to 10 µM

N#Cc1ccc(Oc2ccc3c(c2)COB3O)c(C=O)c1 [D23, 5-(4-Cyano-2-formylphenoxy)-1,3-dihydro-1-hydroxy-2,1-benzoxaborole]
IC50 (TNF-α; Homo sapiens, PBMC, 24 h): 4 to 10 µM

N#Cc1cc(CNC=O)ccc1Oc1ccc2c(c1)COB2O [D137, 5-[2-Cyano-4-(formylaminomethyl)phenoxy]-1,3-dihydro-1-hydroxy-2,1-benzoxaborole]
inhibition at 10 µM (IL-5): 30 to 60% | inhibition at 10 µM (IFN-γ): 60 to 90% | inhibition at 10 µM (IL-10): 30 to 60% | IC50 (TNF-α; Homo sapiens, PBMC, 24 h): 1 to 4 µM | inhibition at 10 µM (IL-2): 60 to 90%

N#Cc1ccc(Oc2ccc3c(c2)COB3O)c(OC2CCCC2)c1 [D133, 3-(cyclopentyloxy)-4-(1-hydroxy-1,3-dihydrobenzo[c][1,2]oxaborol-5-yloxy)benzonitrile]
IC50 (TNF-α; Homo sapiens, PBMC, 24 h): < 1 µM | IC50 [1]: < 1 µM

NCc1ccc(Oc2ccc3c(c2)COB3O)nc1NCCO [D117]
IC50 (IL-5): 1 to 4 µM | IC50 (IFN-γ): > 10 µM | IC50 (IL-10): > 10 µM | IC50 (TNF-α; Homo sapiens, PBMC, 24 h): 1 to 4 µM | IC50 (IL-2): 1 to 4 µM

N#Cc1ccc(Oc2ccc3c(c2)COB3O)c(OCC2CC2)c1 [D134, 3-(cyclopropylmethoxy)-4-(1-hydroxy-1,3-dihydrobenzo[c][1,2]oxaborol-5-yloxy)benzonitrile]
IC50 (TNF-α; Homo sapiens, PBMC, 24 h): < 1 µM | IC50 [1]: < 1 µM

CC(C)(C)/[N+]([O-])=C/c1ccc(Oc2ccc3c(c2)COB3O)nc1 [D70, (Z)—N-((6-(1-hydroxy-1,3-dihydrobenzo[c][1,2]oxaborol-5-yloxy)pyridin-3-yl)methylene)-2-methylpropan-2-amine oxide]
IC50 (IFN-γ): 1 to 4 µM | IC50 (TNF-α; Homo sapiens, PBMC, 24 h): 1 to 4 µM | IC50 (IL-2): < 1 µM | IC50 [1]: 1 to 4 µM

CN(C)CCOC(=O)c1ccc(Oc2ccc3c(c2)COB3O)cc1 [D75, 4-(1-Hydroxy-1,3-dihydro-benzo[c][1,2]oxaborol-5-yloxy)-benzoic acid 2-dimethylamino-ethyl ester]
IC50 (IL-5): 4 to 10 µM | IC50 (IFN-γ): 4 to 10 µM | IC50 (IL-10): > 10 µM | IC50 (TNF-α; Homo sapiens, PBMC, 24 h): 1 to 4 µM | IC50 (IL-2): 1 to 4 µM

N#Cc1ccc(Oc2ccc3c(c2)COB3O)nc1NCc1ccccc1 [D121, 2-Benzylamino-6-(1-hydroxy-1,3-dihydro-benzo[c][1,2]oxaborol-5-yloxy)-nicotinonitrile]
IC50 (IL-5): < 1 µM | IC50 (IFN-γ): < 1 µM | IC50 (IL-10): 1 to 4 µM | IC50 (TNF-α; Homo sapiens, PBMC, 24 h): < 1 µM | IC50 (IL-2): < 1 µM

N#Cc1ccc(Oc2ccc3c(c2)COB3O)c(OCC2CCCC2)c1 [D135, 3-(cyclopentylmethoxy)-4-(1-hydroxy-1,3-dihydrobenzo[c][1,2]oxaborol-5-yloxy)benzonitrile]
IC50 (TNF-α; Homo sapiens, PBMC, 24 h): < 1 µM | IC50 [1]: < 1 µM

COc1nc(Oc2ccc3c(c2F)COB3O)ccc1C#N [D114, 6-(4-Fluoro-1-hydroxy-1,3-dihydrobenzo[c][1,2]oxaborol-5-yloxy)-2-methoxynicotinonitrile]
IC50 (IL-5): < 1 µM | IC50 (IFN-γ): < 1 µM | IC50 (IL-10): > 10 µM | IC50 (TNF-α; Homo sapiens, PBMC, 24 h): < 1 µM | IC50 (IL-2): < 1 µM
